From patent publication US20060009478A1, “Methods for the treatment of back pain” (priority 2003, published 2006)

Assays:
Format in all cases: in vivo, human
[1] = system: patients with moderate to severe chronic pain due to osteoarthritis of the hip or knee; assay: WOMAC Osteoarthritis Index (pain, stiffness, physical function subscales, total score), 3-week osteoarthritis study; conditions: LOCF; for WOMAC osteoarthritis physical function subscale, actual value, mean / WOMAC osteoarthritis physical function subscale, actual value, median / WOMAC osteoarthritis stiffness subscale, actual value, mean / WOMAC osteoarthritis stiffness subscale, actual value, median / WOMAC osteoarthritis total score, actual value, mean / WOMAC osteoarthritis total score, actual value, median / WOMAC osteoarthritis pain subscale, actual value, mean / WOMAC osteoarthritis pain subscale, actual value, median: intent to treat population
From the text: Back pain can be associated with an arthritic condition or inflammation associated with chronic conditions. […] The methods comprise administering to a human subject an amount of an opioid antagonist or the combination of an opioid agonist and an opioid antagonist that is effective to enhance potency of the agonist and/or to alleviate one or more symptoms or signs of an arthritic condition or inflammation associated with a chronic condition, including for example, as measured by a suitable index, scale or measure. The attenuation of one or more symptoms or signs of an arthritic condition or of inflammation associated with a chronic condition may be measured on the WOMAC Osteoarthritis Index or one of its subscales (in other words, the pain, stiffness, or physical function subscales of the WOMAC Osteoarthritis Index). Any suitable version of the WOMAC OA Index may be used, including, for example, Version 3.0 or Version 3.1. Any suitable scale may be used as well. The WOMAC OA Index is available in Likert and Visual Analog scaled formats, either of which may be employed in the present methods. […] The WOMAC values represent a subjective surrogate marker. Alternatively or additionally, the attenuation of one or more symptoms or signs may be measured on another suitable index, scale or measure, such the Australian/Canadian (AUSCAN) Osteoarthritis Hand Index or the Osteoarthritis Global Index (OGI). The AUSCAN 3.1 Index and User Guide are currently available from http://www.womac.org/contact/index.cfm, as are the WOMAC 3.1 Osteoarthritis Index and User Guide. Another suitable measure of attenuation is the Definition of Improvement in Rheumatoid Arthritis described in Felson et al., Arthritis & Rheumatism 38:727-735 (1995) incorporated herein by reference. This measure, which also may be designated as the ACR (American College of Rheumatology) 20 improvement, is a composite defined as both improvement of 20% in the number of tender and number of swollen joints, and a 20% improvement in three of the following five: patient global, physician global, patient pain, patient function assessment, and C-reactive protein (CRP). Another suitable measure is described by Paulus et al., Arthritis & Rheumatism 33:477-484 (1990) which is incorporated herein by reference. Paulus et al. provides a definition of improvement based on a set of measures that discriminate between active second-line drug treatment and placebo. These include a 20% improvement in morning stiffness, erythrocyte sedimentation rate (ESR), joint tenderness score, and joint swelling score and improvement by at least 2 grades on a 5-grade scale (or from grade 2 to grade 1) for patient and physician global assessments of current disease severity. Current disease severity can be measured in a variety of ways, including patient or physician global assessments, patient or physician assessments of joint tenderness, joint swelling stiffness, pain, or physical function, cytokine levels, B-cell or T-cell subtype ratios, erythrocyte sedimentation rate (ESR), or C-reactive protein. Suitable measures of attenuation of one or more symptoms or signs, of inhibiting the progression of an arthritic condition or chronic condition, or of reversing tissue or cellular damage include measuring current disease severity. Other indexes, definitions, measures, or scales may also be used for measuring attenuation of one or more symptoms or signs, inhibition of progression, or reversal of tissue or cellular damage.
A daily diary was to be utilized to record overall pain intensity (PI) and other signs and symptoms.

[2] = system: patients with moderate to severe chronic pain due to osteoarthritis of the hip or knee; assay: Pain control, 3-week osteoarthritis study; conditions: ITT (N = 102 per active group), LOCF
Procedure: Pain Control was also assessed weekly at clinic visits. The patient was prompted with the question, “During the past week, how would you describe your pain control during the course of each day?” Responses were selected from: Pain was controlled for (1) a few hours or less each day; (2) several hours each day; (3) most of each day; and (4) throughout each day.
The global assessment, quality of analgesia, and pain control, recorded at the end of each week, were summarized in terms of category proportions.
For secondary analysis of data, pain intensity changes, SF-12, and WOMAC were analyzed with the ANOVA methods as described above. Within treatment arms, weeks were compared in pairwise fashion using paired-sample methods. The global assessments, quality of analgesia ratings, and pain control was analyzed at each week, globally and in pairwise fashion, using the Cocharan-Mantel-Haenszel row mean scores (CMH-RMS) test, using equally spaced scores.

[3] = system: patients with moderate to severe chronic pain due to osteoarthritis of the hip or knee; assay: Vital signs, clinical laboratory tests, EKG (QTc interval), 3-week osteoarthritis study; conditions: 3-week treatment
From the text: The opioid toxicity assessment included: (A) CNS review by assessing for (1) confusion, altered mental state, (2) excessive drowsiness, lethargy, stupor, (3) slurred speech (new onset), (4) respiratory, (5) hypoventilation, shortness of breath, apnea, (6) hypoxia, hypercarbia; and (b) cardiac review by assessing for bradycardia, hypotension, and shock. If patients experienced any of these or other symptoms that, in the principal investigator's opinion, would pose a significant risk if additional opioid doses were administered, doses were not escalated on Week 2, Day 1 or Week 3, Day 1.

Question: Which “WOMAC osteoarthritis pain subscale, actual value at Week 1, mean” value ([1]; ITT) does the source give for `COc1ccc2c3c1O[C@H]1C(=O)CC[C@@]4(O)[C@@H](C2)N(C)CC[C@]314` [OXY QID, oxycodone] here?
Answer: The value was 263.2.

Question: And the “WOMAC osteoarthritis pain subscale, actual value at Week 1, median” value ([1]; ITT)?
Answer: Its value is 279.0.

Question: And the “WOMAC osteoarthritis physical function subscale, actual value, mean” value ([1]; Week 1)?
Answer: The value was 891.8.

Question: And the “WOMAC osteoarthritis physical function subscale, actual value, median” value ([1]; Week 1)?
Answer: Its value is 930.5.

Question: What about the “WOMAC osteoarthritis stiffness subscale, actual value, mean” value ([1]; Week 1) of the same molecule?
Answer: Its value is 120.3.

Question: What about the “WOMAC osteoarthritis stiffness subscale, actual value, median” value ([1]; Week 1) of the same molecule?
Answer: The value was 129.5.

Question: What about the “WOMAC osteoarthritis total score, actual value, mean” value ([1]; Week 1) of the same molecule?
Answer: The value was 1275.3.

Question: And the “WOMAC osteoarthritis total score, actual value, median” value ([1]; Week 1)?
Answer: The value was 1312.5.

Question: And the “WOMAC osteoarthritis pain subscale, actual value, mean” value ([1]; Week 2)?
Answer: Its value is 245.0.

Question: And the “WOMAC osteoarthritis pain subscale, actual value, median” value ([1]; Week 2)?
Answer: The value was 227.5.

Question: And the “WOMAC osteoarthritis physical function subscale, actual value, mean” value ([1]; Week 2)?
Answer: Its value is 847.6.

Question: And the “WOMAC osteoarthritis physical function subscale, actual value, median” value ([1]; Week 2)?
Answer: The value was 880.0.

Question: What about the “WOMAC osteoarthritis stiffness subscale, actual value, mean” value ([1]; Week 2) of the same molecule?
Answer: Its value is 111.4.

Question: What about the “WOMAC osteoarthritis stiffness subscale, actual value, median” value ([1]; Week 2) of the same molecule?
Answer: The value was 119.5.

Question: And the “WOMAC osteoarthritis total score, actual value, mean” value ([1]; Week 2)?
Answer: Its value is 1204.0.

Question: What about the “WOMAC osteoarthritis total score, actual value, median” value ([1]; Week 2) of the same molecule?
Answer: Its value is 1222.5.

Question: And the “WOMAC osteoarthritis pain subscale, actual value, mean” value ([1]; Week 3)?
Answer: The value was 238.7.

Question: And the “WOMAC osteoarthritis pain subscale, actual value, median” value ([1]; Week 3)?
Answer: Its value is 225.0.

Question: What about the “WOMAC osteoarthritis physical function subscale, actual value, mean” value ([1]; Week 3) of the same molecule?
Answer: The value was 820.0.

Question: What about the “WOMAC osteoarthritis physical function subscale, actual value, median” value ([1]; Week 3) of the same molecule?
Answer: Its value is 867.0.

Question: And the “WOMAC osteoarthritis stiffness subscale, actual value, mean” value ([1]; Week 3)?
Answer: Its value is 106.3.

Question: And the “WOMAC osteoarthritis stiffness subscale, actual value, median” value ([1]; Week 3)?
Answer: The value was 109.0.

Question: And the “WOMAC osteoarthritis total score, actual value, mean” value ([1]; Week 3)?
Answer: The value was 1164.9.

Question: And the “WOMAC osteoarthritis total score, actual value, median” value ([1]; Week 3)?
Answer: Its value is 1191.0.

Question: What about the “Pain control Week 1: PAIN CONTROLLED A FEW HRS/LESS EACH DAY (1), number (%) of patients” value [2] of the same molecule?
Answer: The value was 42 (41.2%).

Question: What about the “Pain control Week 1: PAIN CONTROLLED MOST OF EACH DAY (3), number (%) of patients” value [2] of the same molecule?
Answer: The value was 17 (16.7%).

Question: What about the “Pain control Week 1: PAIN CONTROLLED SEVERAL HRS EACH DAY (2), number (%) of patients” value [2] of the same molecule?
Answer: Its value is 29 (28.4%).

Question: And the “Pain control Week 1: PAIN CONTROLLED THROUGHOUT EACH DAY (4), number (%) of patients” value [2]?
Answer: The value was 10 (9.8%).

Question: And the “Pain control Week 2: PAIN CONTROLLED A FEW HRS/LESS EACH DAY (1), number (%) of patients” value [2]?
Answer: The value was 36 (35.3%).

Question: What about the “Pain control Week 2: PAIN CONTROLLED MOST OF EACH DAY (3), number (%) of patients” value [2] of the same molecule?
Answer: Its value is 26 (25.5%).

Question: What about the “Pain control Week 2: PAIN CONTROLLED SEVERAL HRS EACH DAY (2), number (%) of patients” value [2] of the same molecule?
Answer: Its value is 26 (25.5%).

Question: And the “Pain control Week 2: PAIN CONTROLLED THROUGHOUT EACH DAY (4), number (%) of patients” value [2]?
Answer: Its value is 10 (9.8%).

Question: What about the “Pain control Week 3: PAIN CONTROLLED A FEW HRS/LESS EACH DAY (1), number (%) of patients” value [2] of the same molecule?
Answer: The value was 35 (34.3%).

Question: And the “Pain control Week 3: PAIN CONTROLLED MOST OF EACH DAY (3), number (%) of patients” value [2]?
Answer: Its value is 27 (26.5%).

Question: And the “Pain control Week 3: PAIN CONTROLLED THROUGHOUT EACH DAY (4), number (%) of patients” value [2]?
Answer: Its value is 8 (7.8%).

Question: And the “Effects on vital signs, laboratory safety tests or QTc interval changes” value [3]?
Answer: Its value is “no clinically meaningful effects”.
